Test results as given in patent US11779597B2, “Method of treating Parkinson's and other neurodegenerative diseases” (Vector Vitale IP LLC, priority 2019, dated 2023).

How the values were obtained:
peritoneal macrophages = test: Functional profile of peritoneal macrophages in 6-OHDA rat models after prophylactic administration; assay type: in vivo; details: prophylactic i.p.
Protocol: Methods: Adult mature rodents were used in the study. […] Before prophylactic administration of the experimental drugs, the animals underwent an open field test to assay their general locomotor activity levels and anxiety. The prophylactic course consisted of 10 daily intraperitoneal injections of the drugs (in the case of combination drug, its components were administered at an interval of 2 hours). After the end of prophylactic course, Parkinson's disease was modelled in the animals. […] Ten days after the last (second) apomorphine test, the animals' behavioral responses were assessed in the open field test followed by euthanasia and analysis of functional (metabolic and phenotypic) profiles of phagocytes of different localization. Thus, the study of the functional profile of phagocytes in rat models of Parkinson's disease was performed on day 28 after the end of the course of prophylactic treatment with the experimental drugs. Resident peritoneal macrophages were isolated from sterile cell suspension of peritoneal exudate; enrichment of the suspension was carried out by 2-hour adhesion. Non-adherent and dead cells were separated by centrifugation. Functional characteristics of circulating phagocytes (monocytes and neutrophils) were evaluated in whole blood taken into a tube containing EDTA used as an anticoagulant. Mononuclear and polymorphonuclear phagocytes were analyzed on a flow cytofluorimeter using a gating method. Phagocytes of microglia were isolated using a Percoll density gradient. To assess the phenotypic profile of phagocytes, expression indices of the pan-phagocytic marker CD14 (co-receptor of the bacterial lipopolysaccharide) and the marker of alternative polarization of phagocytes CD206 (mannose receptor 1) were used. To characterize the metabolic profile, oxidative metabolism and phagocytic activity of microglia as well as the pathway of arginine metabolism were studied using flow cytometry and spectrometric methods respectively. FITC-labeled Staphylococcus aureus Wood 46 was used as the object of phagocytosis. The hemogram parameters were analyzed on the hematological analyzer Particle counter model PCE 210 (ERMA, Japan) adapted for the study of blood cells of rats and mice.

[1] = tested on: circulating phagocytes (monocytes and neutrophils); test: Hemogram and functional profile of circulating phagocytes in 6-OHDA rat models after prophylactic administration; assay type: in vivo; details: prophylactic i.p.
Protocol: Methods: Adult mature rodents were used in the study. […] Before prophylactic administration of the experimental drugs, the animals underwent an open field test to assay their general locomotor activity levels and anxiety. The prophylactic course consisted of 10 daily intraperitoneal injections of the drugs (in the case of combination drug, its components were administered at an interval of 2 hours). After the end of prophylactic course, Parkinson's disease was modelled in the animals. […] Ten days after the last (second) apomorphine test, the animals' behavioral responses were assessed in the open field test followed by euthanasia and analysis of functional (metabolic and phenotypic) profiles of phagocytes of different localization. Thus, the study of the functional profile of phagocytes in rat models of Parkinson's disease was performed on day 28 after the end of the course of prophylactic treatment with the experimental drugs. […] Functional characteristics of circulating phagocytes (monocytes and neutrophils) were evaluated in whole blood taken into a tube containing EDTA used as an anticoagulant. Mononuclear and polymorphonuclear phagocytes were analyzed on a flow cytofluorimeter using a gating method. […] The hemogram parameters were analyzed on the hematological analyzer Particle counter model PCE 210 (ERMA, Japan) adapted for the study of blood cells of rats and mice.

[2] = tested on: rat peripheral blood monocytes; test: Metabolic profile of nonsensitized rat peripheral blood monocytes in vitro; assay type: cell-based
Protocol: Materials and methods: Rat microglial cells were isolated by mechanical (cell sieves) disintegration of the brain tissue (FIG. 30A, FIG. 30B and FIG. 30C) followed by fractionation of the tissue homogenate in Percoll density gradient (Microglia: Methods and Protocols, Edited by Bertrand Josef and Jose Luis Venero, Springer protocol. Humana Press, 2013, 350 p.) (FIG. 31). Before the collection of the brain tissue, decapitation was performed to avoid hemorrhage to the brain during sampling (FIG. 32). Decapitation was performed immediately after anesthesia to minimize the death of brain tissue, including microglial cells. All manipulations for the isolation of microglial cells were carried out using coolants. Circulating neutrophils were isolated from venous blood taken into a tube containing EDTA in a two-step Percoll gradient (Alsharif K F et al. Vascul Pharmacol. 2015 August; 71:201-7. doi: 10.1016/j.vph.2015.02.006)(FIG. 33A and FIG. 33B). Circulating monocytes were isolated from venous blood collected into a tube containing heparin in a two-step Hypaque gradient (Macrophages and dendritic cells: Methods and Protocols, Edited by Neil E. Reiner, NY, Humana Press, 2009: 368 P). The metabolic profile of phagocytes was characterized based on the pathway of arginine metabolism (levels of arginase activity and NO synthesis measured using photocolorimetric methods), the level of formation of intracellular reactive oxygen species (ROS) by esterases and the indices of phagocytic activity determined by flow cytofluorimetry, as well as according to the activation levels of NADH and NADPH oxidases determined in NBT test. Duration of treatment of phagocytes of all the above mentioned populations varied depending on the methodological characteristics of metabolic response. A 90 minute exposure to the drugs according to Kim et al., 1977 (cited above) was used to analyze their effects on oxidative metabolism and phagocytic activity. An 18 hour exposure according to Lastra et al., 2001 (cited above) was used to analyze the drug effects on arginine metabolic pathway. To analyze the effects of the drugs under study on the induced (stimulated) metabolic activity of phagocytes, the cells were treated with lipopolysaccharide (LPS) from E. coli (Sigma, USA) according to Haddad et al., 2009 (cited above).

For “^64Zn-enriched zinc aspartate [^64Zne-asp]”, the “CD206 expression level in CD14+ peritoneal phagocytes” value (peritoneal macrophages) was “further decrease”, the “NO synthesis by peritoneal macrophages” value (peritoneal macrophages) was “prevented an increase” and the “arginase activity of peritoneal macrophages” value (peritoneal macrophages) was “absence of any changes”. For the same substance, the “phagocytosis by peritoneal macrophages” value (peritoneal macrophages) was “prevented an increase”, the “NO synthesis by peritoneal macrophages” value (peritoneal macrophages; listed as zinc-based drug) was “decrease” and the “oxidative metabolism in circulating neutrophils” value [1] was “absence of any disturbances”. For the same substance, the “phagocytic activity of circulating monocytes” value [1] was “did not differ from that of intact animals”, the “LPS-stimulated oxidase-dependent respiratory burst of monocytes” value [2] was “no effect” and the “production of nitric oxide by monocytes treated with LPS” value [2] was “moderately increased”. The “spontaneous esterase-dependent intracellular ROS production by monocytes” value [2] was “decrease”, the “intracellular ROS production by bacterial LPS-treated monocytes” value ([2]; 10 μg/ml) was “statistically significantly reduced” and the “spontaneous oxidative metabolism dependent on NADH and NADPH oxidases (NBT test) in monocytes” value ([2]; 10 μg/ml) was “slightly increased”. The “phagocytic activity of monocytes” value ([2]; concentrations ≤5 μg/ml) was “reduced”, the “spontaneous production of nitrites by nonsensitized circulating monocytes” value ([2]; regardless of the concentration) was “did not change significantly” and the “arginase activity of monocytes” value ([2]; resting cells and bacterial LPS-treated cells) was “absent”.
